# According to US11091482B2, “Isoxazolyl-carbonyloxy azabicyclo[3.2.1]octanyl compounds as FXR activators” (ARDELYX, INC., priority 2016, dated 2021):
# Read-outs that look alike come from different tables or passages of the source.
# What was measured:
# [1] = system: fibroblast growth factor 19 (FGF19) secretion in human ileum; test: Human ileum APECCS (FGF19 secretion); assay type: cell-based; details: for EC50: Fibroblast; for Activity, %: relative to GW4064
# [2] = target: ligand binding domain of human FXR (Homo sapiens (Human), UniProt Q96RI1); test: FXR ligand binding assay (LanthaScreen FRET); set-up: Activity, %: concentration or dose not given beside the values; details: for FXR pEC50 / % Efficacy: FXR ligand binding assay; for FXR pEC50: -log EC50; for % Efficacy: extent of activation relative to GW4064; for Emax: read-out: % Efficacy;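 for all read-outs here: TR-FRET coactivator recruitment: ligand-induced binding of fluorescein-labelled SRC2-2 peptide to GST-tagged FXR LBD detected via Tb anti-GST antibody, serial compound dilutions, 3-parameter logistic fit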
# Sequence of ligand binding domain of human FXR (Q96RI1 262-486): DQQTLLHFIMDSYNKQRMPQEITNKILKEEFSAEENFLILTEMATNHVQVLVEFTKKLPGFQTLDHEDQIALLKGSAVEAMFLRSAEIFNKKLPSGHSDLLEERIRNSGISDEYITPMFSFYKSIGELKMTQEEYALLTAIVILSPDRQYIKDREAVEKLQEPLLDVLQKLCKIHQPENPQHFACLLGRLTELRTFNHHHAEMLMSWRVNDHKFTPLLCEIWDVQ
# [3] = target: human Farnesoid X receptor ligand-binding domain/Gal4 DNA binding domain chimera (Homo sapiens (Human), UniProt Q96RI1); test: Cell-based FXR beta-lactamase reporter assay (FXR-UAS-bla HEK 293T cells); details: for Emax: HEK-293T, read-out: % Efficacy; for % Efficacy: extent of activation relative to GW4064
# Sequence of human Farnesoid X receptor ligand-binding domain/Gal4 DNA binding domain chimera (Q96RI1 262-486, change not shown): as the sequence (Q96RI1 262-486) above
# In short: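 Stable FXR-UAS-bla HEK 293T cells in phenol red-free DMEM with 2% charcoal-stripped FBS were exposed to 3-fold serial dilutions of compound. Beta-lactamase reporter activity was read by CCF4 FRET loss, exciting at 409 nm with blue emission at 447 nm. The FRET change versus concentration was fit to a 3-parameter logistic equation.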
# [4] = system: FXR target genes; test: Single-dose FXR target gene expression in mice fed a standard diet; assay type: in vivo, C57BL/6 mice; details: single dose 30 mg/kg
# Text: (§1) Total RNA from mouse tissues was isolated and used for library preparation.
# [5] = Western diet study; assay type: in vivo, C57BL/6 mice; details: male, C57BL/6, mouse, serum; 30 mg/kg q.d., after 2 weeks of treatment, 2 hours after the last dose; read-out: serum FXR agonist concentration
# Description: (§2) Six-week-old C57BL/6 male mice were fed a Western diet (WD) (62% fat/0.2% cholesterol). […] An additional control group (lean) was fed a standard rodent chow throughout the study. Body weight measurements and serum samples (tail bleed) were taken weekly. After 6 weeks of treatment, all animals were sacrificed and hepatosteatosis-related endpoints and other liver markers were measured.
# as §1
# [6] = system: C57BL/6 male mice fed a Western diet; test: Western diet study; assay type: in vivo, C57BL/6 mice
# Description: as §2, §1
# [7] = Western diet, 6 weeks of treatment
# [8] = Western diet, 6 weeks, I-2 30 mg/kg q.d. or b.i.d., Px-102 30 mg/kg q.d., FGF15-AAV single IV dose
# [9] = cellular FXR beta-lactamase reporter assay, -log EC50
# [10] = cellular FXR beta-lactamase reporter assay, -log EC50, read-out: FXR pEC50 (converted)
# [11] = cellular FXR beta-lactamase reporter assay
% Efficacy [2] [%],"FXR pEC50 [3, 9]","% Efficacy [3, 11] [%]",SMILES,FXR pEC50 [2],Emax [2] [%],Emax [3] [%],"EC50 [3, 10] [µM]",also measured
–,–,–,CC(C)c1onc(-c2c(Cl)cccc2Cl)c1COc1ccc(/C=C/c2cccc(C(=O)O)c2)c(Cl)c1 [GW4064],–,–,–,–,"EC50 [1]: 0.316 µM; Activity, % [1]: 100 ± 0%"
–,–,–,O=C(O)c1ccc([C@H]2C[C@@H]2c2ccc(OCc3c(-c4c(Cl)cccc4Cl)noc3C3CC3)cc2Cl)cc1 [Px-102],–,–,–,–,"Activity, % ([2]; Human FXR Binding (FRET), relative to GW4064): 90 ± 15%; EC50 ([2]; Human FXR Binding (FRET), value ± spread, read-out: pEC50 (converted)): 0.01 µM; Activity, % ([3]; Human FXR Cell (Gal4), relative to GW4064): 108%; EC50 ([3]; Human FXR Cell (Gal4), read-out: pEC50 (converted)): 0.158 µM; EC50 [1]: 0.331 µM; Activity, % [1]: 96.5 ± 25%; expression of selected FXR target genes in the liver [4]: activated; expression of FXR target genes, including FGF15, in the ileum ([4]; 6 h after dosing): activated; concentration at 2 h [5]: 475 ng/mL; body weight [6, 7]: did not affect; liver weight [6, 7]: did not affect; liver cholesterol [6, 8]: normalized; liver triglycerides [6, 8]: normalized; macrovesicular steatosis [6, 8]: reduced; serum cholesterol [6, 8]: reduced; Cyp7a1 gene expression ([6]; liver, Western diet): downregulated; serum FGF15 concentration ([6]; mice fed a WD): further increased"
–,–,–,"O=C(O)c1ccc(N2[C@@H]3CC[C@H]2C[C@@H](OC(=O)c2c(-c4c(Cl)cccc4Cl)noc2C2CC2)C3)cc1F [Compound I-41, 4-[(1R,3R,5S)-3-[5-cyclopropyl-3-(2,6-dichlorophenyl)-1,2-oxazole-4-carbonyloxy]-8-azabicyclo[3.2.1]octan-8-yl]-2-fluorobenzoic acid]",7.7,92,117,0.02,–
–,–,–,"O=C(O)c1cc(OC(F)(F)F)c2nc(N3[C@@H]4CC[C@H]3C[C@@H](OC(=O)c3c(C56CCC(CC5)CC6)noc3C3CC3)C4)sc2c1 [Compound I-57, 2-[(1R,3R,5S)-3-(3-{bicyclo[2.2.2]octan-1-yl}-5-cyclopropyl-1,2-oxazole-4-carbonyloxy)-8-azabicyclo[3.2.1]octan-8-yl]-4-(trifluoromethoxy)-1,3-benzothiazole-6-carboxylic Acid]",–,26,33,0.398,–
128,8.1,107,"O=C(NS(=O)(=O)CC1CC1)c1ccc(N2[C@@H]3CC[C@H]2C[C@H](OC(=O)c2c(-c4c(Cl)cccc4Cl)noc2C2CC2)C3)cc1 [Compound I-49, (1R,3S,5S)-8-[4-(cyclopropylmethanesulfonylcarbamoyl)phenyl]-8-azabicyclo[3.2.1]octan-3-yl 5-cyclopropyl-3-(2,6-dichlorophenyl)-1,2-oxazole-4-carboxylate]",8,–,–,–,–
–,–,–,"CC[C@H]1[C@@H](O)[C@@H]2[C@H](CC[C@]3(C)[C@@H]([C@H](C)CCC(=O)O)CC[C@@H]23)[C@@]2(C)CC[C@@H](O)C[C@@H]12 [OCA, Obeticholic acid]",–,–,–,–,"EC50 [1]: 0.501 µM; Activity, % [1]: 82.6 ± 19%"
71,7.4,108,"O=C(O)c1cc(F)c2nc(N3[C@@H]4CC[C@H]3C[C@@H](OC(=O)c3c(-c5c(Cl)cccc5OC(F)F)noc3C3CC3)C4)sc2c1 [Compound I-15, 2-[(1R,3R,5S)-3-{3-[2-chloro-6-(difluoromethoxy)phenyl]-5-cyclopropyl-1,2-oxazole-4-carbonyloxy}-8-azabicyclo[3.2.1]octan-8-yl]-4-fluoro-1,3-benzothiazole-6-carboxylic Acid]",7.4,–,–,–,–
–,–,–,"COc1cc(C(=O)O)cc2sc(N3[C@@H]4CC[C@H]3C[C@@H](OC(=O)c3c(-c5c(Cl)cccc5Cl)noc3C3CC3)C4)nc12 [Compound I-8, 2-[(1R,3R,5S)-3-[5-Cyclopropyl-3-(2,6-dichlorophenyl)-1,2-oxazole-4-carbonyloxy]-8-azabicyclo[3.2.1]octan-8-yl]-4-methoxy-1,3-benzothiazole-6-carboxylic Acid]",–,105,114,0.00398,–
107,8.4,108,"O=C(O)c1cc(F)c2nc(N3[C@@H]4CC[C@H]3C[C@@H](OC(=O)c3c(-c5c(Cl)cccc5Cl)noc3C3(F)CC3)C4)sc2c1 [Compound I-27, 2-[(1R,3R,5S)-3-[3-(2,6-dichlorophenyl)-5-(1-fluorocyclopropyl)-1,2-oxazole-4-carbonyloxy]-8-azabicyclo[3.2.1]octan-8-yl]-4-fluoro-1,3-benzothiazole-6-carboxylic Acid]",8.2,–,–,–,–
–,–,–,"CN1c2cc(N3[C@@H]4CC[C@H]3C[C@@H](OC(=O)c3c(-c5c(Cl)cccc5Cl)noc3C3CC3)C4)ccc2C(=O)C1(F)F [Compound I-30, (1R,3R,5S)-8-(2,2-difluoro-1-methyl-3-oxo-2,3-dihydro-1H-indol-6-yl)-8-azabicyclo[3.2.1]octan-3-yl 5-cyclopropyl-3-(2,6-dichlorophenyl)-1,2-oxazole-4-carboxylate]",–,40,82,0.1,–

SMILES,% Efficacy [2] [%],"FXR pEC50 [3, 9]","% Efficacy [3, 11] [%]",FXR pEC50 [2],Emax [2] [%],Emax [3] [%],"EC50 [3, 10] [µM]",also measured
"CCCS(=O)(=O)NC(=O)c1ccc(N2[C@@H]3CC[C@H]2C[C@@H](OC(=O)c2c(-c4c(Cl)cccc4Cl)noc2C2CC2)C3)cc1 [Compound I-45, (1R,3R,5S)-8-{4-[(propane-1-sulfonyl)carbamoyl]phenyl}-8-azabicyclo[3.2.1]octan-3-yl 5-cyclopropyl-3-(2,6-dichlorophenyl)-1,2-oxazole-4-carboxylate]",130,8.6,–,8.3,–,–,–,–
"Cc1onc(-c2c(Cl)cccc2Cl)c1C(=O)O[C@H]1C[C@H]2CC[C@@H](C1)N2c1nc2c(F)cc(C(=O)O)cc2s1 [Compound I-23, 2-[(1R,3S,5S)-3-[3-(2,6-dichlorophenyl)-5-methyl-1,2-oxazole-4-carbonyloxy]-8-azabicyclo[3.2.1]octan-8-yl]-4-fluoro-1,3-benzothiazole-6-carboxylic Acid]",37,6.8,100,7.1,–,–,–,–
